Experimental findings from publication PMC5655428, “Discovery and pharmacological characterization of a new class of prolyl-tRNA synthetase inhibitor for anti-fibrosis therapy” (PLoS ONE, 2017) are described below.

pIC50: −log10 of the molar value. A value given as a limit tells only on which side of the number the result lay.

One assay deals with T1, human PRS (Homo sapiens, UniProt P07814).
T1 construct: His-Avi-tag (N); made in house; host or cells: E. coli BL21 (DE3)
T1 sequence (P07814 998-1512): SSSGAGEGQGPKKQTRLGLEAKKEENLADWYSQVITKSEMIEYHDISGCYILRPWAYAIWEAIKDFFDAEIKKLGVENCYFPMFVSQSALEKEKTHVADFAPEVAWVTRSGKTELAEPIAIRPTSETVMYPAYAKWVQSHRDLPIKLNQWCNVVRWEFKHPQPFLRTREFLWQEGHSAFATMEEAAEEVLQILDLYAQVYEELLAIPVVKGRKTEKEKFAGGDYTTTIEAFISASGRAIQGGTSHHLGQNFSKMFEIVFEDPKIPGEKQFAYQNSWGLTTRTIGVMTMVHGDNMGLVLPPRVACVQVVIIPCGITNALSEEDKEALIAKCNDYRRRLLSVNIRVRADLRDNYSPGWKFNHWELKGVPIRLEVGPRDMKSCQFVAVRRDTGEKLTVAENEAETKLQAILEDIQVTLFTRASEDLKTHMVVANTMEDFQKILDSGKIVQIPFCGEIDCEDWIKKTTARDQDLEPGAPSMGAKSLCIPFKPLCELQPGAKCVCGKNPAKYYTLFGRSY
Kind of assay: ATP/PPi exchange assay (PRS enzymatic inhibition). Particulars: ATP/PPi exchange method; duplicate. Type of assay: biochemical. The procedure: The expression plasmid of human PRS (residues 998–1512, Genbank Accession No. NM_152621) was constructed in a pET21a vector (Novagen, San Diego, CA, USA) to express in E.coli BL21 (DE3) (Nippongene, Tokyo, Japan) as a fusion protein with His-Avi-tag at N-terminus. After culture, the cells were homogenized in a lysis buffer containing 50 mM Tris-HCl (pH 8.0 at 25°C), 150 mM NaCl, 5 U/mL Benzonase, 20 mM imidazole, and 1 mM DTT. Cell homogenates were centrifuged, and the supernatant was applied to NiNTA purification, followed by gel filtration with Superdex200. Proteins were stored in a buffer containing 50 mM Tris-HCl (pH 8.0 at 25°C), 150 mM NaCl, 10% glycerol, and 1 mM DTT at -80°C. The protein concentration was determined with the BCA Protein Assay Kit (Pierce Biotechnology, Inc., Rockford, IL, USA) according to the instruction manual.
The test compounds were dissolved in 5 μL of an assay buffer [50 mM Tris-HCl (pH 7.5), 20 mM KCl, 1 mM DTT, and 0.01% Tween 20] and incubated with 5 μL of 40 nM PRS enzyme dissolved in the assay buffer supplemented with 40 mM MgCl2 for 60 minutes. […] Radioactivities were measured using the TopCount detector (PerkinElmer).
The inhibitory activity was calculated as follows: % inhibition = (A—B) / (A—C) × 100, where, A, B, and C are signals with vehicle, test sample, and without reaction, respectively. […]

The test system of assay [1] is TGF-β-treated human skin fibroblast. Kind of assay: α-SMA and pro-COL1A1 protein ELISA in TGF-β-treated skin fibroblasts (Protocol 1). It is filed as cell-based. Particulars: TGF-β 1 ng/mL, 24 h; for pro-COL1A1 protein expression / α-SMA protein expression: 1-300 nM, 0.5 h pre-treatment, ELISA. The procedure:
Primary human skin fibroblasts (NHDF-Ad) were obtained from Lonza (Basel, Switzerland). Cells were cultured and maintained in growth medium: Fibroblast Basal Medium (FBM) containing human fibroblast growth factor-B, insulin, fetal bovine serum (FBS) and gentamicin/amphotericin-B (Lonza). Cells were maintained in a humidified incubator at 37°C with 5% CO2 and used for experiments between passages 5 to 8.
Protocol 1: Cells were allowed to adhere overnight before being replaced with serum-free FBM for 24 h. Serum-starved cells were first pretreated with samples in DMSO at concentrations between 1 and 300 nM for 30 min and then stimulated with 1 ng/mL recombinant human TGF-β (R&D Systems, Minneapolis, MN, USA) for 24 h.
Cell lysates were prepared with cell lysis buffer (Cell Signaling Technology, Beverly, MA, USA) and subjected to α-SMA ELISA system (Abnova, Taipei, Taiwan) and Pro-type I Collagen α1 (pro-COL1A1) SimpleStep ELISA Kit (Abcam, Cambridge, UK, USA) according to the manufacturer's protocol.

The test system of assay [2] is differentiated human skin myofibroblast. In words: reverse fibrosis: α-SMA protein in TGF-β-induced differentiated skin myofibroblasts (Protocol 2). Type of assay: cell-based. The settings on record: TGF-β 1 ng/mL 48 h, then compound 48 h without TGF-β. The procedure: Protocol 2: Cells were allowed to adhere overnight before being replaced with serum-free FBM for 24 h. Cells were then treated with TGF-β (1 ng/mL) for 48 h to induce differentiation to myofibroblast with expressing α-SMA protein. The medium was then removed, and the cells were subsequently treated with or without samples (1–300 nM) in serum-free FBM for an additional 48 h. Cell lysates were prepared with cell lysis buffer (Cell Signaling Technology, Beverly, MA, USA) and subjected to α-SMA ELISA system (Abnova, Taipei, Taiwan) and Pro-type I Collagen α1 (pro-COL1A1) SimpleStep ELISA Kit (Abcam, Cambridge, UK, USA) according to the manufacturer's protocol.

On human PRS, `O=C(CC1NCCCC1O)Cn1cnc2cc(Br)c(Cl)cc2c1=O` (stereo not drawn) [HF, Halofuginone, reference compound] gave a pIC50 of 8.06. For the same compound, in assay [1], the pro-COL1A1 protein expression entry is given as “suppressed pro-COL1A1 protein expression in a dose-dependent manner”; the α-SMA protein expression result is given as “suppressed α-SMA protein expression in a dose-dependent manner”; the “concentration reducing α-SMA and pro-COL1A1 proteins below the basal level of non-stimulated cells” value is on record as at least 100 nM. In assay [2], the “concentration promoting the reduction of α-SMA protein in differentiated myofibroblasts” value came to 100 nM and the “concentration reducing α-SMA levels to that of non-stimulated controls” value is reported as 300 nM.

For `Cn1cc(-c2cc(F)cc(CNC(=O)c3nccc4nc(C5CCCC5)[nH]c34)c2)cn1` [T-3833261, 2-Cyclopentyl-N-(3-fluoro-5-(1-methyl-1H-pyrazol-4-yl)benzyl)-3H-imidazo[4,5-c]pyridine-4-carboxamide], the negative-log IC50 (pIC50) at human PRS was 8.44. In assay [1], the pro-COL1A1 protein expression entry is on record as “suppressed pro-COL1A1 protein expression in a dose-dependent manner”; the α-SMA protein expression entry is “suppressed α-SMA protein expression in a dose-dependent manner”; the “concentration reducing α-SMA and pro-COL1A1 proteins below the basal level of non-stimulated cells” value was at least 100 nM. Further, in assay [2], the “concentration promoting the reduction of α-SMA protein in differentiated myofibroblasts” value was determined as 100 nM and the “concentration reducing α-SMA levels to that of non-stimulated controls” value stood at 300 nM.

As a reminder, the pIC50 is the IC50 on a negative log10 scale, so that one unit is a factor of ten.
